Laboratory results published in patent publication US10792303B2, “Compositions and methods for inducing beige or brown fat tissue” (Logick Energetics, priority 2015, dated 2020).

Test system: KS-483 cells
Assay: qPCR gene expression in KS-483 cells after compound stimulation
Assay type: cell-based
Details: 3 days stimulation, Indo 5 uM; for BMP-4 gene expression (control = 1) / BMP-7 gene expression (control = 1) / CD36 gene expression (control = 1) / CEBP gene expression (control = 1) / CIDEA gene expression (control = 1) / DKK2 gene expression (control = 1) / FABP-4 gene expression (control = 1) / FGF21 gene expression (control = 1) / LPL gene expression (control = 1) / LRP5 gene expression (control = 1) / O3FAR1 gene expression (control = 1) / PLIN1 gene expression (control = 1) / PPAR-γ gene expression (control = 1) / PRDM16 gene expression (control = 1) / PpargC1α/PGC-1α gene expression (control = 1) / SCD1 gene expression (control = 1) / SLC2A4 gene expression (control = 1) / WNT5a gene expression (control = 1) / WNT6 gene expression (control = 1) / WNT10a gene expression (control = 1) / WNT11 gene expression (control = 1) / Adipoq gene expression (control = 1) / CFD gene expression (control = 1) / Noggin gene expression (control = 1) / UCP-1 gene expression (control = 1): Pentosan 5 ug/ml; for BMP-2 gene expression (control = 1): Pentosan 0.05 ug/ml
Description: The genes in KS-483 cells were assessed for up- or downregulation after stimulation with compound. Briefly, KS-483 cells were cultured under standard culturing conditions in α-MEM medium supplemented with glutamax, penicillin/streptomycin and 10% heat-inactivated Foetal Calf Serum (FCS).
For gene-expression analysis cells were seeded at 9210 cells/cm2 in 6-wells culture plates (Costar). At day 4, when cells were confluent, cells were stimulated with compounds in the presence of 5 μg/ml vitamin C. After 72 hours stimulation, cells were washed with PBS and subsequently RNA from the cells was isolated in 1 ml TRIzol (Invitrogen) following a standard TRIzol isolation protocol. RNA concentration and purity was assessed on a Nanodrop 1000 (Thermo Scientific). Single strand cDNA was synthesized from the isolated mRNA using reverse transcriptase (RT). Subsequently, SYBR green real-time PCR, also known as qPCR, was used to quantify differential gene expression of selected genes normalized to the expression of the housekeeping gene beta-2 microglobulin (b2m). […] The qPCR protocol applied was as follows:
15 minutes at 95° C. to activate Taq DNA polymerase, inactivate reverse transcriptase and denaturate the cDNA template.
40 cycles of 15 seconds denaturation at 95° C., 30 seconds annealing at 55° C. and 30 seconds of extension at 72° C.
At the melting point, the two strands of DNA will separate and the fluorescence rapidly decreases. Presence of multiple melting point, pointing at contaminated end-products was verified.
The threshold cycle or CT value (the cycle at which a statistically significant increase in normalized fluorescence intensity is first detected) were determined and relative fold change of genes of interest compared to b2m was determined.
The control has an expression of 1; values higher than 1 imply up-regulation of the gene; values lower than 1 imply down-regulation of genes.

| Compound | BMP-4 gene expression (control = 1) (1 ng c-DNA) | BMP-7 gene expression (control = 1) (1 ng c-DNA) | CD36 gene expression (control = 1) (1 ng c-DNA) | CEBP gene expression (control = 1) (1 ng c-DNA) | CIDEA gene expression (control = 1) (1 ng c-DNA) | DKK2 gene expression (control = 1) (1 ng c-DNA) | FABP-4 gene expression (control = 1) (1 ng c-DNA) | FGF21 gene expression (control = 1) (1 ng c-DNA) | LPL gene expression (control = 1) (1 ng c-DNA) | LRP5 gene expression (control = 1) (1 ng c-DNA) | O3FAR1 gene expression (control = 1) (1 ng c-DNA) | PLIN1 gene expression (control = 1) (1 ng c-DNA) | PPAR-γ gene expression (control = 1) (1 ng c-DNA) | PRDM16 gene expression (control = 1) (1 ng c-DNA) | PpargC1α/PGC-1α gene expression (control = 1) (1 ng c-DNA) | SCD1 gene expression (control = 1) (1 ng c-DNA) | SLC2A4 gene expression (control = 1) (1 ng c-DNA) | WNT5a gene expression (control = 1) (1 ng c-DNA) | WNT6 gene expression (control = 1) (1 ng c-DNA) | WNT10a gene expression (control = 1) (1 ng c-DNA) | other results |
| --- | --- | --- | --- | --- | --- | --- | --- | --- | --- | --- | --- | --- | --- | --- | --- | --- | --- | --- | --- | --- | --- |
| COc1ccc2c(c1)c(CC(=O)O)c(C)n2C(=O)c1ccc(Cl)cc1 [Indo, Indomethacin] | 0.81 | 1.62 | 181.5 | 1.19 | 0.95 | 1.06 | 162.94 | 2.33 | 4.43 | 1.58 | 2.26 | 354.02 | 0.91 | 1.58 | 1.15 | 1.32 | 2.09 | 0.73 | 0.83 | 0.92 | WNT11 gene expression (control = 1) (1 ng c-DNA): 1.01; BMP-2 gene expression (control = 1) (10 ng c-DNA): 1.96; Adipoq gene expression (control = 1) (10 ng c-DNA): 251.30; CFD gene expression (control = 1) (10 ng c-DNA): 413.23; CIDEA gene expression (control = 1) (10 ng c-DNA): 1.86; Noggin gene expression (control = 1) (10 ng c-DNA): 2.25; O3FAR1 gene expression (control = 1) (10 ng c-DNA): 5.68; UCP-1 gene expression (control = 1) (10 ng c-DNA): 2.18 |
| Pentosan polysulfate | 0.77 | 0.77 | 2.60 | 0.63 | 5.50 | 0.14 | 3.83 | 0.23 | 2.33 | 3.27 | 0.44 | 17.47 | 1.55 | 1.85 | 2.09 | 0.85 | 1.07 | 0.76 | 0.16 | 0.03 | WNT11 gene expression (control = 1) (1 ng c-DNA): 0.12; BMP-2 gene expression (control = 1) (10 ng c-DNA): 1.32; Adipoq gene expression (control = 1) (10 ng c-DNA): 32.00; CFD gene expression (control = 1) (10 ng c-DNA): 40.86; CIDEA gene expression (control = 1) (10 ng c-DNA): 9.19; Noggin gene expression (control = 1) (10 ng c-DNA): 3.56; O3FAR1 gene expression (control = 1) (10 ng c-DNA): 1.14; UCP-1 gene expression (control = 1) (10 ng c-DNA): 2.85 |
